Like-named read-outs stand apart in the source and are kept apart here.
Tests used:
D. immitis L4 larvae = assay: Dirofilaria immitis, L4 Stage (DiL4) In Vitro Assay; format: cell-based; details: ratio of DiMf MED to DiL4 MED
[1] = test system: circulating microfilariae; assay: Heartworm Positive Dog Studies
[2] = test system: circulating microfilariae; details: dog, in vivo

CC(C)C[C@H]1C(=O)O[C@H](Cc2ccc(N3CCOCC3)cc2)C(=O)N(C)[C@@H](CC(C)C)C(=O)O[C@H](C)C(=O)N(C)[C@@H](CC(C)C)C(=O)O[C@H](Cc2ccc(N3CCOCC3)cc2)C(=O)N(C)[C@@H](CC(C)C)C(=O)O[C@H](C)C(=O)N1C [emodepside, Emodepside, reference compound]
selectivity against D. immitis L4 (DiMf/DiL4) (D. immitis L4 larvae): 1 × | adverse effects / clinical observations ([1]; heartworm positive dogs, oral, emodepside 1 mg/kg, Example 3-9 3 mg/kg): all treated dogs exhibited adverse effects consistent with dead or dying circulating microfilariae | Mean MF/mL, Day 0, Post-dose, 2 hours ([1]; heartworm positive dogs, oral, emodepside 1 mg/kg, Example 3-9 3 mg/kg, 2 hours post-dose, blood): 8,300 MF/mL | Mean MF/mL, Day 0 Pre-dose ([1]; heartworm positive dogs, oral, emodepside 1 mg/kg, Example 3-9 3 mg/kg, Day 0 pre-dose, blood): 61,000 MF/mL | Mean MF/mL, Day 1 ([1]; heartworm positive dogs, oral, emodepside 1 mg/kg, Example 3-9 3 mg/kg, Day 1, blood): 4,500 MF/mL | Mean MF/mL, Day 7 ([1]; heartworm positive dogs, oral, emodepside 1 mg/kg, Example 3-9 3 mg/kg, Day 7, blood): 8,800 MF/mL | % Reduction of MF, Day 0, Post-dose, 2 hours ([1]; vs pre-dose (day 0) levels, oral, emodepside 1 mg/kg, Example 3-9 3 mg/kg, 2 hours post-dose): 87% | % Reduction of MF, Day 0, Post-dose, 2 hours ([1]; vs pre-dose (day 0) levels, oral, emodepside 1 mg/kg, Example 3-9 3 mg/kg, 2 hours post-dose, listed as Emodepside): 87% | % Reduction of MF, Day 1 ([1]; vs pre-dose (day 0) levels, oral, emodepside 1 mg/kg, Example 3-9 3 mg/kg, Day 1): 93% | % Reduction of MF, Day 7 ([1]; vs pre-dose (day 0) levels, oral, emodepside 1 mg/kg, Example 3-9 3 mg/kg, Day 7): 86%

(3S,6R,9S,12R,15S,18R,21S,24R)-6-benzyl-18-(4-(hydroxy(6-methoxypyridin-3-yl)methyl)benzyl)-3,9,15,21-tetraisobutyl-4,10,12,16,22,24-hexamethyl-1,7,13,19-tetraoxa-4,10,16,22-tetraazacyclotetracosan-2,5,8,11,14,17,20,23-octaone [Example 3-9]
adverse effects / clinical observations [2]: no adverse effects observed | % Reduction of MF, Day 0, Post-dose, 2 hours ([1]; dog, in vivo): −11% | % Reduction of MF, Day 1 ([1]; dog, in vivo): −28% | % Reduction of MF, Day 7 ([1]; dog, in vivo): −50% | Mean MF/mL, Day 0, Post-dose, 2 hours ([1]; dog, in vivo): 20,000 MF/mL | Mean MF/mL, Day 0 Pre-dose ([1]; dog, in vivo): 18,000 MF/mL | Mean MF/mL, Day 1 ([1]; dog, in vivo): 23,000 MF/mL | Mean MF/mL, Day 7 ([1]; dog, in vivo): 25,000 MF/mL | % Reduction of MF, Day 14 ([1]; dog, in vivo, po, 3 mg/kg): −22% | % Reduction of MF, Day 21 ([1]; dog, in vivo, po, 3 mg/kg): −33% | Mean MF/mL, Day 14 ([1]; dog, in vivo, po, 3 mg/kg): 22,000 MF/mL | Mean MF/mL, Day 21 ([1]; dog, in vivo, po, 3 mg/kg): 24,000 MF/mL

Source: patent publication US11771738B2 (Zoetis Services LLC, priority 2018, dated 2023)
